Results published in patent publication US20050101595A1, “N-containing cycloalkyl-substituted amino-thiazole derivatives and pharmaceutical compositions for inhibiting cell proliferation and methods for their use” (PFIZER INC., priority 2003, published 2005).

Key:
HCT-116 cell line = assay: Inhibition of cell growth, tetrazolium salt (MTT) assay; type: cell-based; settings: HCT-116 cells
Procedure, shortened: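 Growth inhibition by MTT reduction at 540 nm (0.2 mg/mL, 4 h at 37° C, formazan dissolved in DMSO), normalized to cells given only 0.5% v/v DMSO. HCT-116 cultures in McCoy's 5A were dosed 4 h post-plating and kept three to five days at 37° C, 5% CO2.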

CDK2/Cyclin A = CDK2/Cyclin A (Homo sapiens, UniProt P24941); assay: Inhibition of CDK2/Cyclin A Retinoblastoma Kinase Activity; type: biochemical; settings: at 0.03 μM
Procedure, shortened: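 Baculovirus-expressed CDK2 complexed with proteolyzed cyclin A (10 or 19 nM), Rb fragment substrate, 25 μM [32P/33P]ATP, HEPES pH 7.4, 30 °C for 60 or 75 min under initial-rate conditions. Filter capture and phosphorimager readout; apparent Ki fitted to competitive or tight-binding competitive inhibition.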

[1] = biological target: human CDK4 and genetically truncated (1-264) cyclin D3 (Homo sapiens, UniProt P11802); assay: Inhibition of CDK4/Cyclin D Retinoblastoma Kinase Activity; type: biochemical; settings: at 0.03 μM
Sequence of human CDK4 and genetically truncated (1-264) cyclin D3 (P11802 whole entry, the tested form may be a part): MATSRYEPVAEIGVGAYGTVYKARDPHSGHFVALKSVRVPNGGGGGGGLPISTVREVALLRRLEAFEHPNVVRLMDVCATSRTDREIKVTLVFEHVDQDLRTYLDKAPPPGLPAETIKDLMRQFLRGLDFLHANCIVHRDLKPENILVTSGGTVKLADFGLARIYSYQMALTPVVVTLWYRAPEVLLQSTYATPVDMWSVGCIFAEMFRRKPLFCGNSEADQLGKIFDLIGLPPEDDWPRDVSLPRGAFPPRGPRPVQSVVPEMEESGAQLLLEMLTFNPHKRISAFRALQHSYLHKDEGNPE
Sequence of human CDK4 and genetically truncated (1-264) cyclin D3 (P30281 1-264 partner): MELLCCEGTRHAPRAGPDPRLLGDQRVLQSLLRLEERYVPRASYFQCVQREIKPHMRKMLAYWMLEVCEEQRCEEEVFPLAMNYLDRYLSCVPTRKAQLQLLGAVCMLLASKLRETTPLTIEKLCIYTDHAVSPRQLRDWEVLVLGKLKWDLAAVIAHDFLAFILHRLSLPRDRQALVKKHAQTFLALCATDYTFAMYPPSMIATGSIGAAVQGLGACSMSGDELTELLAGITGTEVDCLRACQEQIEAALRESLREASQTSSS
Procedure, shortened: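 Human CDK4/truncated cyclin D3 (1-264) complex from baculovirus-infected insect cells, 5 nM, phosphorylating Rb fragment (residues 386-928, His-tagged) with 25 μM [32/33P]ATP in HEPES pH 7.4, MgCl2, 2% DMSO at 30° C. for 20 min (60 min for tight binders). Filter-captured radioactivity by phosphorimager; apparent Ki from competitive or tight-binding fits.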

| Compound | CDK2 % Inhibition at 0.03 μM (CDK2/Cyclin A) | CDK4 % Inhibition at 0.03 μM [1] | HCT-116 % Inhibition at 0.1 μM (HCT-116 cell line) | HCT-116 5 Inhibition at 0.25 μM (HCT-116 cell line) |
| --- | --- | --- | --- | --- |
| Nc1nc(NC2CCN(C(=S)Oc3ccc(F)cc3)CC2)sc1C(=O)c1c(F)cccc1F [Example R85] | 90% | 81% | 0% | 47 |
| CC1CCC(C(C)C)C(OC(=O)N2CCC(Nc3nc(N)c(C(=O)c4c(F)cccc4F)s3)CC2)C1 (centres unmarked) [Example R86] | 9% | 9% | 0% | 34 |
| Nc1nc(NC2CCN(C(=O)OC3CCCC3)CC2)sc1C(=O)c1c(F)cccc1F [Example R87] | 17% | 28% | 0% | 36 |
| CC(C)(C)COC(=O)N1CCC(Nc2nc(N)c(C(=O)c3c(F)cccc3F)s2)CC1 [Example R88] | 6% | −3% | 0% | 42 |
| Nc1nc(NC2CCN(C(=O)C3CC3)CC2)sc1C(=O)c1c(F)cccc1F [Example R89] | 3% | 5% | 0% | 46 |
| CC1CC1C(=O)N1CCC(Nc2nc(N)c(C(=O)c3c(F)cccc3F)s2)CC1 (centres unmarked) [Example R93] | −10% | −1% | 0% | 42 |
| Nc1nc(NC2CCN(C(=O)CC3CCCC3)CC2)sc1C(=O)c1c(F)cccc1F [Example R96] | −20% | −18% | 2% | 36 |
| Nc1nc(NC2CCN(C(=O)CCC3CCCC3)CC2)sc1C(=O)c1c(F)cccc1F [Example R97] | 13% | 17% | 0% | 39 |
| Nc1nc(NC2CCN(C(=O)CC3C=CCC3)CC2)sc1C(=O)c1c(F)cccc1F (centres unmarked) [Example R98] | 8% | 11% | 0% | 44 |
| Nc1nc(NC2CCN(C(=O)CC3CCCCC3)CC2)sc1C(=O)c1c(F)cccc1F [Example R100] | −5% | 10% | 0% | 49 |
| Nc1nc(NC2CCN(C(=O)CCC3CCCCC3)CC2)sc1C(=O)c1c(F)cccc1F [Example R101] | 15% | 39% | 7% | 45 |
| Nc1nc(NC2CCN(C(=O)CCCC3CCCCC3)CC2)sc1C(=O)c1c(F)cccc1F [Example R102] | 18% | 34% | 0% | 43 |
| Nc1nc(NC2CCN(C(=O)c3c(F)cccc3F)CC2)sc1C(=O)c1c(F)cccc1F [Example R105] | 8% | 9% | 0% | 44 |
| Nc1nc(NC2CCN(C(=O)c3cccc(Cl)c3Cl)CC2)sc1C(=O)c1c(F)cccc1F [Example R106] | 2% | 19% | 2% | 72 |
| Nc1nc(NC2CCN(C(=O)c3ccc(Cl)cc3Cl)CC2)sc1C(=O)c1c(F)cccc1F [Example R107] | 44% | 63% | 8% | 48 |
| Nc1nc(NC2CCN(C(=O)c3cc(Cl)ccc3Cl)CC2)sc1C(=O)c1c(F)cccc1F [Example R108] | 56% | 72% | 5% | 58 |
| Nc1nc(NC2CCN(C(=O)c3c(F)cccc3Cl)CC2)sc1C(=O)c1c(F)cccc1F [Example R109] | 21% | 34% | 14% | 47 |
| Nc1nc(NC2CCN(C(=O)c3c(Cl)cccc3Cl)CC2)sc1C(=O)c1c(F)cccc1F [Example R110] | 24% | 30% | 3% | 48 |
| CC(=O)Nc1ccccc1C(=O)N1CCC(Nc2nc(N)c(C(=O)c3c(F)cccc3F)s2)CC1 [Example R111] | 11% | 25% | 4% | 52 |
| CC(=O)Oc1ccccc1C(=O)N1CCC(Nc2nc(N)c(C(=O)c3c(F)cccc3F)s2)CC1 [Example R113] | 44% | 48% | 0% | 40 |

Continued, in another order:

| CDK2 % Inhibition at 0.03 μM (CDK2/Cyclin A) | CDK4 % Inhibition at 0.03 μM [1] | Compound | HCT-116 % Inhibition at 0.1 μM (HCT-116 cell line) | HCT-116 5 Inhibition at 0.25 μM (HCT-116 cell line) |
| --- | --- | --- | --- | --- |
| −2% | −6% | Nc1nc(NC2CCN(C(=O)C3(c4ccccc4)CC3)CC2)sc1C(=O)c1c(F)cccc1F [Example R90] | 0% | 19 |
| −1% | 14% | Nc1nc(NC2CCN(C(=O)C3(c4ccc(Cl)cc4)CC3)CC2)sc1C(=O)c1c(F)cccc1F [Example R91] | 2% | 41 |
| 10% | −5% | Nc1nc(NC2CCN(C(=O)C3Cc4ccccc43)CC2)sc1C(=O)c1c(F)cccc1F (centres unmarked) [Example R94] | 0% | 42 |
| −13% | −27% | Nc1nc(NC2CCN(C(=O)C3(c4ccccc4)CCCC3)CC2)sc1C(=O)c1c(F)cccc1F [Example R95] | 0% | 38 |
| −5% | −4% | CC1(C(=O)N2CCC(Nc3nc(N)c(C(=O)c4c(F)cccc4F)s3)CC2)CCCCC1 [Example R99] | 5% | 49 |
| 4% | 18% | Nc1nc(NC2CCN(C(=O)c3ccccc3)CC2)sc1C(=O)c1c(F)cccc1F [Example R103] | 0% | 45 |
| 5% | −8% | Nc1nc(NC2CCN(C(=O)c3ccccc3F)CC2)sc1C(=O)c1c(F)cccc1F [Example R104] | 0% | 38 |
| 12% | 21% | CNc1ccccc1C(=O)N1CCC(Nc2nc(N)c(C(=O)c3c(F)cccc3F)s2)CC1 [Example R112] | 39% | 93 |
| 60% | 65% | COc1ccccc1C(=O)N1CCC(Nc2nc(N)c(C(=O)c3c(F)cccc3F)s2)CC1 [Example R114] | 0% | 42 |
